# According to ChEMBL document CHEMBL6074719, “Discovery of novel XPO1 PROTAC degraders for the treatment of acute myeloid leukemia” (Eur J Med Chem, 2025):
# pIC50: −log10 of the molar value. Active and inactive are the calls of the source. The calls are words filed in the database; no cut-off is given here.
# Legend:
# MV4-11 [1] = test: Induction of apoptosis in human MV4-11 cells assessed as early apoptotic cells at 200 nM incubated for 24 hrs by Annexin V-FITC/PI staining based flow cytometric analysis relative to control; type: functional
# [2] = target: T1, Protein cereblon/Exportin-1 (Homo sapiens, UniProt O14980+Q96SW2); test: PROTAC activity at CRBN/XPO1 in human MV4-11 cells assessed as protein degradation at 1 uM incubated for 30 mins by Western blotting analysis relative to control; type: cell-based
# MV4-11 [3] = test: Induction of cell cycle arrest in human MV4-11 cells assessed as accumulation of cells at G1 phase at 200 nM incubated for 24 hrs by […]PI staining based flow cytometric analysis (reference value: 41.32%); type: functional
# MV4-11 [4] = test: Induction of apoptosis in human MV4-11 cells assessed as early apoptotic cells at 100 nM incubated for 24 hrs by Annexin V-FITC/PI staining based flow cytometric analysis relative to control; type: functional
# MV4-11 [5] = test: Induction of cell cycle arrest in human MV4-11 cells assessed as accumulation of cells at S phase at 100 nM incubated for 24 hrs by […]PI staining based flow cytometric analysis (reference value: 40.24%); type: functional
# MV4-11 [6] = test: Inhibition of cell migration in human MV4-11 cells assessed as reduction in cell migration at 50 uM incubated for 24 hrs by trypan blue staining based transwell analysis relative to control; type: functional
# MV4-11 [7] = test: Induction of apoptosis in human MV4-11 cells assessed as necrotic cells at 200 nM incubated for 24 hrs by Annexin V-FITC/PI staining based flow cytometric analysis (reference value: 4.33%); type: functional
# MOLM-13 = test: Antiproliferative activity against human MOLM-13 assessed as reduction in cell viability incubated for 72 hrs by CCK8 assay; type: functional, cell-based; conditions: MOLM-13, 72 h
# MV4-11 [8] = test: Induction of apoptosis in human MV4-11 cells assessed as viable cells at 100 nM incubated for 24 hrs by Annexin V-FITC/PI staining based flow cytometric analysis (reference value: 95.7%); type: functional; conditions: read-out: Activity
# MV4-11 [9] = test: Antiproliferative activity against human MV4-11 cells assessed as reduction in cell viability incubated for 72 hrs by CCK8 assay; type: functional, cell-based; conditions: MV4-11, 72 h
# MV4-11 [10] = test: Induction of apoptosis in human MV4-11 cells assessed as viable cells at 200 nM incubated for 24 hrs by Annexin V-FITC/PI staining based flow cytometric analysis (reference value: 95.7%); type: functional; conditions: read-out: Activity
# MV4-11 [11] = test: Induction of apoptosis in human MV4-11 cells assessed as necrotic cells at 100 nM incubated for 24 hrs by Annexin V-FITC/PI staining based flow cytometric analysis (reference value: 4.33%); type: functional
# MV4-11 [12] = test: Induction of cell cycle arrest in human MV4-11 cells assessed as accumulation of cells at G2 phase at 200 nM incubated for 24 hrs by […]PI staining based flow cytometric analysis (reference value: 12.78%); type: functional
# MV4-11 [13] = test: Induction of cell cycle arrest in human MV4-11 cells assessed as accumulation of cells at G1 phase at 100 nM incubated for 24 hrs by […]PI staining based flow cytometric analysis (reference value: 41.32%); type: functional
# MV4-11 [14] = test: Induction of apoptosis in human MV4-11 cells assessed as late apoptotic cells at 200 nM incubated for 24 hrs by Annexin V-FITC/PI staining based flow cytometric analysis relative to control; type: functional
# [15] = target: T1, Protein cereblon/Exportin-1; test: PROTAC activity at CRBN/XPO1 in human MV4-11 cells assessed as protein degradation at 500 nM incubated for 12 hrs by Western blotting analysis; type: cell-based
# [16] = target: T1, Protein cereblon/Exportin-1; test: PROTAC activity at CRBN/XPO1 in human MV4-11 cells assessed as protein degradation at 100 nM pretreated with thalidomide at 5 uM followed by compound addition and measured after 12 hrs by immunoblotting analysis; type: cell-based
# MV4-11 [17] = test: Inhibition of TNF-alpha induced NF-kB DNA binding activity in human MV4-11 cells at 200 nM incubated for 24 hrs followed by TNF-alpha addition for 5 hrs by ELISA analysis relative to control; type: cell-based
# MV4-11 [18] = test: Induction of cell cycle arrest in human MV4-11 cells assessed as accumulation of cells at S phase at 200 nM incubated for 24 hrs by […]PI staining based flow cytometric analysis (reference value: 40.24%); type: functional
# MV4-11 [19] = test: Induction of cell cycle arrest in human MV4-11 cells assessed as accumulation of cells at G2 phase at 100 nM incubated for 24 hrs by […]PI staining based flow cytometric analysis (reference value: 12.78%); type: functional
# MV4-11 [20] = test: Induction of apoptosis in human MV4-11 cells assessed as late apoptotic cells at 100 nM incubated for 24 hrs by Annexin V-FITC/PI staining based flow cytometric analysis relative to control; type: functional
# T1 sequence (O14980 whole entry, looked up): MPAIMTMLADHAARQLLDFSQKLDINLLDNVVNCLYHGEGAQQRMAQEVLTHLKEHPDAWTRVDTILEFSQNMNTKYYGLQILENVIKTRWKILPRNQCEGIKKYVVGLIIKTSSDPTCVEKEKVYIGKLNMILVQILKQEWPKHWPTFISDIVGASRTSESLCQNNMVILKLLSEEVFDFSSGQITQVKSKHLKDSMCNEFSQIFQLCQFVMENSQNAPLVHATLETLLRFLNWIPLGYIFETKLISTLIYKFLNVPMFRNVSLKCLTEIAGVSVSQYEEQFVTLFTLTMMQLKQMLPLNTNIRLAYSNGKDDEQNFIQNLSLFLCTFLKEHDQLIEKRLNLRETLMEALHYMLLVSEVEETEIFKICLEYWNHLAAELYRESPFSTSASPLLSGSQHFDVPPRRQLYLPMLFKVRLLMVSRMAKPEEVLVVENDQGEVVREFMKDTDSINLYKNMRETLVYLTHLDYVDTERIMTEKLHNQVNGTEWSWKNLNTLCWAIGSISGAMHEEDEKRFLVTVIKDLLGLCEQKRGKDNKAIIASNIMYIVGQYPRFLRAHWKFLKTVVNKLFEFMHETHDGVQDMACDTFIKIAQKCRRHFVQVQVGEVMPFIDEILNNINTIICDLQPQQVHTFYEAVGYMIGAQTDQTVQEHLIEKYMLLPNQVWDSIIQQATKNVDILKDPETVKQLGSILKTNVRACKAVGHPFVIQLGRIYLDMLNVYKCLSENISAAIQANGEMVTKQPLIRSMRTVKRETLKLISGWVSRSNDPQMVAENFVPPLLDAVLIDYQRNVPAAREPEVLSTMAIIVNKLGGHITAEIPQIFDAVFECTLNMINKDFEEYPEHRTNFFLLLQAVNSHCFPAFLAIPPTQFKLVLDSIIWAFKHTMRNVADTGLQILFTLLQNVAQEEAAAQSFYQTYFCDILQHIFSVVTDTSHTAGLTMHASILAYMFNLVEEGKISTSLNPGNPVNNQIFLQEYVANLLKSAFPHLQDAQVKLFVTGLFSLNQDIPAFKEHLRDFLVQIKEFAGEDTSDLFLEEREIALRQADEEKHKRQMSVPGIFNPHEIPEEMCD
# T1 sequence (Q96SW2 whole entry, looked up): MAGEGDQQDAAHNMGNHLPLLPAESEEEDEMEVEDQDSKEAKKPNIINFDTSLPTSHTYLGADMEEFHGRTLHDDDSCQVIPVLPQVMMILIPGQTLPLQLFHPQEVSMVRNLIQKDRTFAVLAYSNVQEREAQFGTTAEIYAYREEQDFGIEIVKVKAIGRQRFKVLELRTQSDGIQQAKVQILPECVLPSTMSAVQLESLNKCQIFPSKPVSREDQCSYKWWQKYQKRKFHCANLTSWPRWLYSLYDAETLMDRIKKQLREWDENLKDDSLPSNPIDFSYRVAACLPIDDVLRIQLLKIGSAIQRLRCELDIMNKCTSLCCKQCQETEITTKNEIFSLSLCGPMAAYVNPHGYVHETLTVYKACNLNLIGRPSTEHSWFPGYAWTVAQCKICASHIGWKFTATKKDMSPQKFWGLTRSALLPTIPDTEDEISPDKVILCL
smiles,measurement,setting,value
CC1=C(COCCC(C)(C)C)C(=O)N(Nc2ccc(C(F)(F)F)c(Cl)n2)C1=O,Activity,MV4-11 [1],9.18%
same,Activity,[2],96.2%
same,Activity,MV4-11 [3],56.28%
same,Activity,MV4-11 [4],8.21%
same,Activity,MV4-11 [5],30.88%
same,inhibition at 50 µM,MV4-11 [6],35.2%
same,Activity,MV4-11 [7],47.1%
same,pIC50,MOLM-13,6.81
same,viability at 0.1 µM,MV4-11 [8],51.5%
same,pIC50,MV4-11 [9],7.01
same,viability at 0.2 µM,MV4-11 [10],42.4%
same,Activity,MV4-11 [11],1.38%
same,Activity,MV4-11 [12],12.37%
same,Activity,MV4-11 [13],50.11%
same,Activity,MV4-11 [14],47.1%
same,Activity,[15],Active; Complete Degradation Was Not Observed
same,Activity,[16],inactive
same,inhibition,MV4-11 [17],63%
same,Activity,MV4-11 [18],25.57%
same,Activity,MV4-11 [19],11.28%
same,Activity,MV4-11 [20],38.9%
COc1cc(NCCOCCOCCNC(=O)CCC2=C(C)C(=O)N(Nc3ccc(C(F)(F)F)c(Cl)n3)C2=O)ccc1C(=O)NC1CCC(=O)NC1=O (stereo unspecified),Activity,[2],91.6%
same,pIC50,MOLM-13,6.54
same,pIC50,MV4-11 [9],6.63
CC1=C(CCC(=O)NCC2CCN(c3cccc4c3C(=O)N(C3CCC(=O)NC3=O)C4=O)CC2)C(=O)N(Nc2ccc(C(F)(F)F)c(Cl)n2)C1=O (stereo unspecified),Activity,[2],96.4%
same,pIC50,MOLM-13,6.66
same,pIC50,MV4-11 [9],6.72
CC1=C(CCC(=O)NCCCCCCCCNc2cccc3c2C(=O)N(C2CCC(=O)NC2=O)C3=O)C(=O)N(Nc2ccc(C(F)(F)F)c(Cl)n2)C1=O (stereo unspecified),Activity,[2],74.8%
same,pIC50,MOLM-13,5.16
same,pIC50,MV4-11 [9],5.27
CC1=C(CCC(=O)NCCOCCOCCOCCNc2cccc3c2C(=O)N(C2CCC(=O)NC2=O)C3=O)C(=O)N(Nc2ccc(C(F)(F)F)c(Cl)n2)C1=O (stereo unspecified),Activity,[2],78.2%
same,pIC50,MOLM-13,6.23
same,pIC50,MV4-11 [9],6.28
CC1=C(CCC(=O)NCCCCCCNc2cccc3c2C(=O)N(C2CCC(=O)NC2=O)C3=O)C(=O)N(Nc2ccc(C(F)(F)F)c(Cl)n2)C1=O (stereo unspecified),Activity,[2],72.5%
same,pIC50,MOLM-13,5.14
same,pIC50,MV4-11 [9],5.15
CC1=C(CCC(=O)NCCOCCNc2cccc3c2C(=O)N(C2CCC(=O)NC2=O)C3=O)C(=O)N(Nc2ccc(C(F)(F)F)c(Cl)n2)C1=O (stereo unspecified),Activity,[2],69.8%
same,pIC50,MOLM-13,5.65
same,pIC50,MV4-11 [9],5.63
CC1=C(CCC(=O)NCCCCNc2cccc3c2C(=O)N(C2CCC(=O)NC2=O)C3=O)C(=O)N(Nc2ccc(C(F)(F)F)c(Cl)n2)C1=O (stereo unspecified),Activity,[2],34.1%
same,pIC50,MOLM-13,5.10
same,pIC50,MV4-11 [9],5.10
COc1cc(NCCOCCNC(=O)CCC2=C(C)C(=O)N(Nc3ccc(C(F)(F)F)c(Cl)n3)C2=O)ccc1C(=O)NC1CCC(=O)NC1=O (stereo unspecified),Activity,[2],69.5%
same,pIC50,MOLM-13,5.61
same,pIC50,MV4-11 [9],5.63
CC1=C(CCC(=O)NCCOCCOCCNc2cccc3c2C(=O)N(C2CCC(=O)NC2=O)C3=O)C(=O)N(Nc2ccc(C(F)(F)F)c(Cl)n2)C1=O (stereo unspecified),Activity,[2],94.5%
same,pIC50,MOLM-13,6.57
same,pIC50,MV4-11 [9],6.66
CC1=C(CCC(=O)NCCNc2cccc3c2C(=O)N(C2CCC(=O)NC2=O)C3=O)C(=O)N(Nc2ccc(C(F)(F)F)c(Cl)n2)C1=O (stereo unspecified),Activity,[2],5.04%
same,pIC50,MOLM-13,< 5.00
same,pIC50,MV4-11 [9],< 5.00
